Values of other authors in PubChem BioAssay AID1259410 (Chemical Carcinogenesis Research Information System (CCRIS), 2018).

System: rodent tumor promotion studies, tumor incidence
Experiment: CCRIS tumor promotion studies

## Cn1c(N)nc2ncc(-c3ccccc3)cc21
Carcinogen: 3,2'-DIMETHYL-4-AMINOBIPHENYL, 13394-86-0, Doses [Carcinogen]: 50 MG/KG BW ONCE/2 WK FOR FIRST 20 WK (STUDY DURATION: 60 WK), Doses [Promoter]: 0, 100, 300 PPM IN DIET FOR 40 WK BEGINNING 20 WK POST CARCINOGEN TREATMENT (STUDY DURATION: 60 WK), Doses [Promoter]: 0, 100, 300 PPM IN DIET FOR 40 WK BEGINNING 20 WK POST CARCINOGEN TREATMENT (STUDY DURATION: 60 WK), Route [Carcinogen]: SUBCUTANEOUS, Route [Promoter]: ORAL, Species: RAT, Strain/Sex: F344/MALE
  outcome: small intestine: adenocarcinoma
Carcinogen: AZOXYMETHANE [25843-45-2], Doses [Carcinogen]: 2 DOSES OF 15 MG/KG BW AT 1 WK INTERVALS STARTING AT 6 WKS OF AGE (STUDY DURATION: 36 WKS), Doses [Promoter]: 0, 0.001, 0.01, 0.1, 1, 10, 50, 200 PPM IN DIET FOR 34 WKS STARTING AFTER CARCINOGEN, Doses [Promoter]: 0, 0.001, 0.01, 0.1, 1, 10, 50, 200 PPM IN DIET FOR 34 WKS STARTING AFTER CARCINOGEN, Route [Carcinogen]: SUBCUTANEOUS, Route [Promoter]: ORAL (DIET), Species: RAT, Strain/Sex: F344/MALE
  outcome: large intestine: adenomas and adenocarcinoma; only doses of 50 and 200 ppm were
Carcinogen: DIETHYLNITROSAMINE, 55-18-5, N-METHYL-N-NITROSOUREA, 684-93-5, N-BUTYL-N-(4-HYDROXYBUTYL)NITROSAMINE, 3817-11-6, 1,, Carcinogen: DIETHYLNITROSAMINE, 55-18-5, N-METHYL-N-NITROSOUREA, 684-93-5, N-BUTYL-N-(4-HYDROXYBUTYL)NITROSAMINE, 3817-11-6, 1,, Doses [Carcinogen]: 100 MG/KG BW DEN ONCE, 20 MG/KG BW MNU 4 TIMES, 0.05% BBN IN DRINKING WATER FOR FIRST 2 WK OF STUDY, 40 MG/KG DMH 4 TIME, Doses [Carcinogen]: 100 MG/KG BW DEN ONCE, 20 MG/KG BW MNU 4 TIMES, 0.05% BBN IN DRINKING WATER FOR FIRST 2 WK OF STUDY, 40 MG/KG DMH 4 TIME, Doses [Promoter]: 0, 60 PPM IN DIET FOR 24 WK BEGINNING AT WK 5 OF STUDY (STUDY DURATION: 29 WK), Route [Carcinogen]: INTRAPERITONEAL, INTRAPERITONEAL, ORAL, SUBCUTANEOUS, ORAL, Route [Carcinogen]: INTRAPERITONEAL, INTRAPERITONEAL, ORAL, SUBCUTANEOUS, ORAL, Route [Promoter]: ORAL, Species: RAT, Strain/Sex: F344/MALE
  outcome: large intestine: adenocarcinoma
Carcinogen: DIETHYLNITROSAMINE, 55-18-5, N-METHYL-N-NITROSOUREA, 684-93-5, N-BUTYL-N-(4-HYDROXYBUTYL)NITROSAMINE, 3817-11-6, 1,, Carcinogen: DIETHYLNITROSAMINE, 55-18-5, N-METHYL-N-NITROSOUREA, 684-93-5, N-BUTYL-N-(4-HYDROXYBUTYL)NITROSAMINE, 3817-11-6, 1,, Doses [Carcinogen]: 100 MG/KG BW DEN ONCE, 20 MG/KG BW MNU 4 TIMES, 0.05% BBN IN DRINKING WATER FOR FIRST 2 WK OF STUDY, 40 MG/KG DMH 4 TIME, Doses [Carcinogen]: 100 MG/KG BW DEN ONCE, 20 MG/KG BW MNU 4 TIMES, 0.05% BBN IN DRINKING WATER FOR FIRST 2 WK OF STUDY, 40 MG/KG DMH 4 TIME, Doses [Promoter]: 0, 300 PPM IN DIET FOR 24 WK BEGINNING AT WK 5 OF STUDY (STUDY DURATION: 29 WK), Route [Carcinogen]: INTRAPERITONEAL, INTRAPERITONEAL, ORAL, SUBCUTANEOUS, ORAL, Route [Carcinogen]: INTRAPERITONEAL, INTRAPERITONEAL, ORAL, SUBCUTANEOUS, ORAL, Route [Promoter]: ORAL, Species: RAT, Strain/Sex: F344/MALE
  outcome: small intestine: adenocarcinoma; large intestine: adenocarcinoma

## CC[C@H](C)[C@H](NC(=O)[C@H](CO)NC(=O)[C@H](CC(N)=O)NC(=O)[C@H](CC(C)C)NC(=O)[C@H](Cc1ccc(O)cc1)NC(=O)[C@H](CCCCN)NC(=O)[C@H](CCCCN)NC(=O)[C@@H](NC(=O)[C@H](C)NC(=O)[C@H](CCSC)NC(=O)[C@H](CCC(N)=O)NC(=O)[C@H](CCCCN)NC(=O)[C@H](CCCNC(=N)N)NC(=O)[C@H](CC(C)C)NC(=O)[C@H](CCCNC(=N)N)NC(=O)[C@@H](NC(=O)[C@H](Cc1ccc(O)cc1)NC(=O)[C@H](CC(N)=O)NC(=O)[C@H](CC(=O)O)NC(=O)[C@@H](NC(=O)[C@H](Cc1ccccc1)NC(=O)[C@@H](NC(=O)[C@H](C)NC(=O)[C@H](CC(=O)O)NC(=O)[C@H](CO)NC(=O)[C@@H](N)Cc1c[nH]cn1)C(C)C)[C@@H](C)O)[C@@H](C)O)C(C)C)C(=O)N[C@@H](CC(C)C)C(=O)N[C@@H](CC(N)=O)C(=O)O
Carcinogen: AZOXYMETHANE, 25843-45-2, Doses [Carcinogen]: 7.4 MG/KG BW IN 0.9% SALINE 1/WK FOR 10 WK, Doses [Promoter]: 0, 20 UG/KG BW IN OLIVE OIL 1/2 D FOR DURATION OF STUDY (STUDY DURATION: 45 WK), Route [Carcinogen]: SUBCUTANEOUS, Route [Promoter]: SUBCUTANEOUS, Species: RAT, Strain/Sex: WISTAR/MALE
  outcome: colon: tumor

## Oc1cccc(Cl)c1
Carcinogen: 7,12-DIMETHYLBENZ(A)ANTHRACENE, Doses [Carcinogen]: TOP, Route [Carcinogen]: DERMAL, Route [Promoter]: DERMAL, Species: MOUSE, Strain/Sex: FEMALE
  outcome: integumentary system (skin)
